In US9216968B2, “Heterocyclic derivative and pharmaceutical drug” (NIPPON SHINYAKU CO., LTD., priority 2011, dated 2015) one finds IC50 data, which are given here for 21 molecules.

The structures appear in SMILES notation. pIC50: −log10 of the molar value. Where a name gives a salt, the structure may show the parent alone.

Chain of human mPGES-1 (O14684 whole entry): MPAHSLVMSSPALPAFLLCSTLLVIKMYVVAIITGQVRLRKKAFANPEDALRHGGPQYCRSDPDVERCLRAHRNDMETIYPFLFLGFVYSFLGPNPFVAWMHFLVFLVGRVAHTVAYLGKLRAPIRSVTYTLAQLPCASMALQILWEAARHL

The target of this test is human mPGES-1 (Homo sapiens (Human), UniProt O14684). Nature of the test: mPGES-1 inhibiting activity (microsome fractions, PGE2 by HTRF). The format is biochemical. To be noted: microsomes from CHO-K1 cells transfected with human mPGES-1; PGH2 1 μM, 4° C., 60 seconds; read-out: mPGES-1 Inhibition IC50. As for the experimental part:
mPGES-1 microsome fractions were prepared from CHO-K1 cells transiently transfected with plasmid encoding the human mPGES-1cDNA. Microsomes were diluted with potassium phosphate buffer containing reduced glutathione (pH7.4), and DMSO containing test compound or DMSO alone was added (such that DMSO final concentration would be 1% in each) and incubated at 4° C. for 20 minutes. Then, the enzymatic reactions were initiated by the addition of PGH2 substrate (final concentration 1 μM) and incubated at 4° C. for 60 seconds. The reaction was terminated by the addition of a citrate solution (final citrate concentration 50 mM) containing ferric chloride (final concentration 1 mg/mL). PGE2 production in the enzyme reaction aliquot was measured using HTRF kit (Cisbio International, catalogue #62P2APEC). The solution free of test compound was used as positive control, and the solution free of test compound and microsome sample was used as negative control. 100% activity was defined as PGE2 production in the positive control minus PGE2 production in negative control. IC50 value was calculated by standard method.
On the technique in general: In TR-FRET formats the signal depends on donor and acceptor labels being close together.
Broadly, the pIC50 is −log10 of the IC50, conventionally taken in molar units. Take `COCc1nc2c(C(=O)Nc3cccc4nsnc34)cc(NC(=O)c3ccccc3C(F)(F)F)cc2[nH]1` [Example 221, N-(2,1,3-Benzothiadiazol-4-yl)-2-(methoxymethyl)-6-({[2-(trifluoromethyl)phenyl]carbonyl}amino)-1H-benzimidazole-4-carboxamide hydrochloride]: the pIC50 is 8.66.
Regarding `COCc1nc2c(C(=O)NCc3cccs3)cc(NC(=O)c3ccccc3C(F)(F)F)cc2[nH]1` [Example 223, 2-(Methoxymethyl)-N-(thiophen-2-ylmethyl)-6-({[2-(trifluoromethyl)phenyl]carbonyl}amino)-1H-benzimidazole-4-carboxamide hydrochloride], the pIC50 is 7.17.
To `COCc1nc2c(C(=O)NCC(C)(C)C)cc(NC(=O)c3ccccc3C(F)(F)F)cc2[nH]1` [Example 226, N-(2,2-Dimethylpropyl)-2-(methoxymethyl)-6-({[2-(trifluoromethyl)phenyl]carbonyl}amino)-1H-benzimidazole-4-carboxamide hydrochloride] belongs 7.57; to `O=C(Nc1cc(C(=O)NC2CCCCC2)c2[nH]ncc2c1)c1ccccc1C(F)(F)F` [Example 9, N-Cyclohexyl-5-({[2-(trifluoromethyl)phenyl]carbonyl}amino)-1H-indazole-7-carboxamide], 6.34.
The figure for `COCc1nc2c(C(=O)Nc3ccc4[nH]ccc4c3)cc(NC(=O)c3ccccc3C(F)(F)F)cc2[nH]1` [Example 224, N-(1H-Indol-5-yl)-2-(methoxymethyl)-6-({[2-(trifluoromethyl)phenyl]carbonyl}amino)-1H-benzimidazole-4-carboxamide] is 7.58; for `Cc1c(Cl)cccc1NC(=O)c1cc(NC(=O)c2ccccc2C(F)(F)F)cc2[nH]c(NCC3(C)COC3)nc12` [Example 159, N-(3-Chloro-2-methylphenyl)-2-{[(3-methyloxetan-3-yl)methyl]amino}-6-({[2-(trifluoromethyl)phenyl]carbonyl}amino)-1H-benzimidazole-4-carboxamide hydrochloride] it is 6.39; for `COCc1nc2c(C(=O)Nc3cccs3)cc(NC(=O)c3ccccc3C(F)(F)F)cc2[nH]1` [Example 227, 2-(Methoxymethyl)-N-(thiophen-2-yl)-6-({[2-(trifluoromethyl)phenyl]carbonyl}amino)-1H-benzimidazole-4-carboxamide hydrochloride] it is 10.00.
The figure for `COCc1nc2c(C(=O)Nc3ccsc3)cc(NC(=O)c3ccccc3C(F)(F)F)cc2[nH]1` [Example 220, 2-(Methoxymethyl)-N-(thiophen-3-yl)-6-({[2-(trifluoromethyl)phenyl]carbonyl}amino)-1H-benzimidazole-4-carboxamide hydrochloride] is 8.07; for `Cn1cnc2c(C(=O)NC3CCCCC3)cc(NC(=O)c3ccccc3C(F)(F)F)cc21` [Example 47, N-Cyclohexyl-1-methyl-6-({[2-(trifluoromethyl)phenyl]carbonyl}amino)-1H-benzimidazole-4-carboxamide] it is 6.57; for `COCc1nc2c(C(=O)Nc3cccc(Cl)c3C)cc(NC(=O)c3cc(OCCCC(F)(F)F)ccc3Cl)cc2[nH]1` [Example 249, N-(3-Chloro-2-methylphenyl)-6-({[2-chloro-5-(4,4,4-trifluorobutoxy)phenyl]carbonyl}amino)-2-(methoxymethyl)-1H-benzimidazole-4-carboxamide hydrochloride] it is 6.39.
As to `COCc1nc2c(C(=O)Nc3cccc(Cl)c3C)cc(NC(=O)c3cc(C#CCOC(C)(C)C)ccc3Cl)cc2[nH]1` [Example 117, 6-({[5-(3-tert-Butoxy-1-propynyl)-2-chlorophenyl]carbonyl}amino)-N-(3-chloro-2-methylphenyl)-2-(methoxymethyl)-1H-benz imidazole-4-carboxamide hydrochloride], the pIC50 is 6.23.
As to `O=C(Nc1cc(C(=O)NCc2ccccc2C(F)(F)F)c2[nH]ncc2c1)c1ccccc1C(F)(F)F` [Example 10, N-[2-(Trifluoromethyl)benzyl]-5-({[2-(trifluoromethyl)phenyl]carbonyl}amino)-1H-indazole-7-carboxamide], the pIC50 is 6.48.
`COCc1nc2c(C(=O)Nc3ccc4c(c3)S(=O)(=O)C=C4)cc(NC(=O)c3ccccc3C(F)(F)F)cc2[nH]1` [Example 222, N-(1,1-Dioxide-1-benzothiophen-6-yl)-2-(methoxymethyl)-6-({[2-(trifluoromethyl)phenyl]carbonyl}amino)-1H-benzimidazole-4-carboxamide hydrochloride]: the pIC50 is 6.18.
As to `COCc1nc2c(C(=O)Nc3cccc(Cl)c3C)cc(NC(=O)c3ccc(C(F)(F)F)cc3C(F)(F)F)cc2[nH]1` [Example 111, 6-({[2,4-Bis(trifluoromethyl)phenyl]carbonyl}amino)-N-(3-chloro-2-methylphenyl)-2-(methoxymethyl)-1H-benzimidazole-4-carboxamide hydrochloride], the pIC50 is 6.12.
Turning to `O=C(Nc1cc2c(c(C(=O)NCc3ccccc3C(F)(F)F)c1)OCC2)c1ccccc1C(F)(F)F` [Example 6, N-[2-(Trifluoromethyl)benzyl]-5-({[2-(trifluoromethyl)phenyl]carbonyl}amino)-2,3-dihydro-1-benzofuran-7-carboxamide], the pIC50 is 7.56.
The figure for `COCc1nc2c(C(=O)Nc3cccc(Cl)c3C)cc(NC(=O)c3cc(OCC(F)F)ccc3Cl)cc2[nH]1` [Example 248, 6-({[2-Chloro-5-(2,2-difluoroethoxy)phenyl]carbonyl}amino)-N-(3-chloro-2-methylphenyl)-2-(methoxymethyl)-1H-benzimidazole-4-carboxamide hydrochloride] is 6.70; for `COCc1nc2c(C(=O)NCc3ccccc3Cl)cc(NC(=O)c3ccccc3C(F)(F)F)cc2n1C` [Example 91, N-(2-Chlorobenzyl)-2-(methoxymethyl)-1-methyl-6-({[2-(trifluoromethyl)phenyl]carbonyl}amino)-1H-benzimidazole-4-carboxamide] it is 6.49.
As to `O=C(Nc1cc(C(=O)NCC2(O)CCCCC2)c2nc[nH]c2c1)c1ccccc1C(F)(F)F` [Example 5, N-[(1-Hydroxycyclohexyl)methyl]-6-({[2-(trifluoromethyl)phenyl]carbonyl}amino)-1H-benzimidazole-4-carboxamide], the pIC50 is 6.34.
To `COCc1nc2c(C(=O)Nc3cccnc3)cc(NC(=O)c3ccccc3C(F)(F)F)cc2[nH]1` [Example 216, 2-(Methoxymethyl)-N-(pyridin-3-yl)-6-({[2-(trifluoromethyl)phenyl]carbonyl}amino)-1H-benzimidazole-4-carboxamide hydrochloride] belongs 6.69.
To `COCc1nc2c(C(=O)Nc3cccc(Cl)c3C)cc(NC(=O)c3cc(CCC(C)(C)O)ccc3Cl)cc2[nH]1` [Example 119, 6-({[2-Chloro-5-(3-hydroxy-3-methylbutyl)phenyl]carbonyl}amino)-N-(3-chloro-2-methylphenyl)-2-(methoxymethyl)-1H-benzimidazole-4-carboxamide hydrochloride] belongs 6.68; to `COCc1nc2c(C(=O)Nc3nc4ccccc4s3)cc(NC(=O)c3ccccc3C(F)(F)F)cc2[nH]1` [Example 225, N-(1,3-Benzothiazol-2-yl)-2-(methoxymethyl)-6-({[2-(trifluoromethyl)phenyl]carbonyl}amino)-1H-benzimidazole-4-carboxamide hydrochloride], 7.81.
